{"source": "patent US6939876B2", "about": "“Prevention of addiction in pain management” (priority 2001, dated 2005)", "key": {"male Sprague-Dawley rats [1]": {"test_system": "male Sprague-Dawley rats", "test": "Heroin-induced conditioned place preference (CPP), expression phase", "assay_type": "in vivo", "settings": "for Time spent in chambers, Paired / Time spent in chambers, Unpaired: mean ± S.E.M.", "excerpt": "In all rodent studies, male Sprague-Dawley rats were used (200-225 g. Taconic farms, Germantown, N.Y.). Animals were allowed to acclimate to the animal housing facility for at least 5 days prior to beginning the experiments. Conditioned place preference (CPP) chambers were used as previously described (Lepore et al., 1995), except instead of one chamber being entirely white and the other black, one chamber was entirely light blue with a stainless steel floor and the second chamber was light blue with horizontal black stripes (2.5 cm wide) spaced 3.8 cm apart with a smooth plexiglass floor. In all CPP studies with GVG, the saline volume was (1 ml/kg), and the heroin doses were 1.5 mg/kg. The saline, heroin and GVG were all injected intraperitonealy (i.p.). The conditioning procedure for the acquisition phase consisted of 12 sessions carried out consecutively over 12 days.\nThe CPP pairings were: 1) saline/saline 2) saline/heroin 3) GVG/saline 4) saline/heroin and GVG. The animals in each group were randomly assigned to a 2×2 factorial design ,with one factor being the pairing chamber and the other factor being the order of conditioning. The animals that received either saline or heroin were injected and confined to the appropriate compartment for 30 minutes. The GVG injections were given 3 hours before saline or heroin injection and subsequent placement of the animals in the appropriate chamber. This was done as it has been shown that GABA levels reach maximal values 3 to 4 hours following GVG administration.\nOn the test day (day 12), neither drugs nor saline were administered and the animal was allowed to move freely between both chambers for fifteen minutes. The amount of time spent in each chamber was recorded using an automated infrared beam electronically coupled to a timer. For the expression phase of CPP to heroin, the animals were habituated and conditioned to heroin as described in the acquisition studies, but no animals in the expression studies were given GVG on conditioning days. On the test day (day 12), the animals being tested in the expression phase, unlike the animals in the acquisition phase, received either saline or GVG 2.5 hours before they were placed in the apparatus and allowed free access to both chambers for 15 minutes."}, "male Sprague-Dawley rats [2]": {"test_system": "male Sprague-Dawley rats", "test": "Hot plate test (53 degrees Centigrade), latency to forepaw licking", "assay_type": "in vivo", "settings": "for Licking latency: mean ± S.E.M., 10 rats", "description": "The effect of GVG on the analgesic potency of morphine in male Sprague-Dawley rats was examined using the hot plate test. In this paradigm, animals are treated and placed on a hot plate at a temperature of 53 degrees Centigrade and the latency to licking of one of the forepaws was measured. This test is used as screen for agents that have moderate to significant analgesic action as these drugs will increase latency to forepaw licking.\nThe rats were treated with either vehicle or GVG 2.5 hours prior to receiving either vehicle or morphine. Animals were given either vehicle or morphine 30 minutes prior to placing them on a hot plate at a constant temperature of 53 degrees Centigrade. Analgesic potency was assessed by measuring the latency to forepaw licking after placement on the hot plate. A total of 10 rats were examined for each treatment group."}, "[3]": {"test_system": "extracellular DA concentrations in the nucleus accumbens (NAcc)", "test": "In vivo microdialysis: morphine-induced extracellular DA in the nucleus accumbens of freely moving rats", "parameters": "species or system Sprague-Dawley rats", "excerpt": "The effects of increased endogenous GABA activity on morphine-induced extracellular DA concentrations in the nucleus accumbens (NAcc) of freely moving rats was explored.\nAll animals there used under an IACUC-approved protocol and with strict adherence to the NIH guidelines. Adult male Sprague-Dawley rats (200-300 g, Taconic Farms), housed in the animals care facility under 12:12 light/dark conditions, were placed into 6 groups (n=3-6), anesthetized and siliconized guide cannulae were stereotactically implanted into the right NAcc (2.0 mm anterior and 1.0 mm lateral to bregms, and 7.0 mm ventral to the cortical surface) and prefrontal cortex (PFC) at least 4 days prior to study. Microdialysis probes (2.0 mm, Bioanalytical Systems, BAS, West Lafayette. Ind.) were positioned within the guide cannulae and artificial cerebrospinal fluid (ACSF. 155.0 mM NA^−, 1.1 mM Ca^2−, 2.9 mM K^−, 132.76 mM Cl^−, and 0.83 mM Mg^2−) was administered through the probe using a CMA/100 microinfusion pump (BAS) at a flow rate of 2.0 μl/min.\nAnimals were placed in bowls, and probes were inserted and flushed with ACSF overnight. On the day of the study. a minimum of three samples were injected to determine baseline stability. Samples were collected for 20 min. and injected on-line (CMA/160, BAS). The average dopamine concentration of these three stable samples was defined as control (100%). and all subsequent treatment values were transformed to a percentage of that control. Upon establishing a stable baseline, the morphine was administered by intraperitoneal (i.p.) injection. The high performance liquid chromatography (HPLC) system consists of a BAS reverse-phase column (3.0 μC-18), a BAS LC-4C electrochemical transducer with a dual/glassy carbon electrode set at 650 mV, a computer that analyzes data on-line using a commercial software package (Chromograph Bioanalytical Systems), and a dual pen chart recorder. The mobile phase (flow rate 1.0 ml/min) consisted of 7.0% methanol, 50 mM sodium phosphate monobasic, 1.0 mM sodium octyl sulfate, and 0.1 mm […], pH 4.0. DA eluted at 7.5 min.\nGamma-vinyl GABA (GVG), an irreversible inhibitor of GABA-transaminase, was administered by intraperitoneal injection 2.5 hours prior to morphine (7 mg/kg). In all studies, animals were placed in the microdialysis bowls the night before the experiment and artificial cerebrospinal fluid (ACSF) was perfused through the microdialysis probes at a flow rate of 2.0 μl/min. At the end of each study, animals were sacrificed and their brains were removed and sectioned for probe placement verification\nLevels of extracellular DA were sampled from the NAcc continuously using a stereoaxically implanted probe. Morphine alone increases DA concentrations 50% above baseline in the NAcc (p<0.01, T=3.79)."}, "[4]": {"settings": "pairing Vehicle/Heroin (heroin 1.5 mg/kg i.p.), vehicle on test day"}, "[5]": {"settings": "pairing Vehicle/Heroin, GVG 300 mg/kg on test day (2.5 h before test)"}, "[6]": {"settings": "pairing Vehicle/Vehicle, GVG 300 mg/kg on test day"}}, "data": [{"smiles": "CC(=O)Oc1ccc2c3c1O[C@H]1[C@@H](OC(C)=O)C=C[C@H]4[C@@H](C2)N(C)CC[C@@]341", "note": "[Heroin, heroin]", "values": [{"measurement": "Time spent in chambers, Paired", "setting": "male Sprague-Dawley rats [1]; [4]", "value": "10.9 ± 0.4", "unit": "min"}, {"measurement": "Time spent in chambers, Unpaired", "setting": "male Sprague-Dawley rats [1]; [4]", "value": "4.1 ± 0.4", "unit": "min"}]}, {"smiles": "C=CC(N)CCC(=O)O", "note": "(stereo not drawn) [GVG, 4-amino-5-hexanoic acid]", "values": [{"measurement": "Effect on expression of heroin-induced CPP", "setting": "male Sprague-Dawley rats [1]; GVG 300 mg/kg on test day", "value": "blocked the expression of heroin-induced CPP"}, {"measurement": "Time spent in chambers, Paired", "setting": "male Sprague-Dawley rats [1]; [5]", "value": "6.6 ± 0.7", "unit": "min"}, {"measurement": "Time spent in chambers, Unpaired", "setting": "male Sprague-Dawley rats [1]; [5]", "value": "8.4 ± 0.7", "unit": "min"}, {"measurement": "Time spent in chambers, Paired", "setting": "male Sprague-Dawley rats [1]; [6]", "value": "7.4 ± 0.3", "unit": "min"}, {"measurement": "Time spent in chambers, Unpaired", "setting": "male Sprague-Dawley rats [1]; [6]", "value": "7.6 ± 0.3", "unit": "min"}, {"measurement": "Effect of GVG on the analgesic potency of morphine", "setting": "male Sprague-Dawley rats [2]; GVG 300 mg/kg i.p. 2.5 hrs prior to morphine 10 mg/kg i.p.", "value": "does not alter the analgesic potency of morphine"}, {"measurement": "Licking latency", "setting": "male Sprague-Dawley rats [2]; pretreatment GVG 300 mg/kg (2.5 h before), treatment morphine 10 mg/kg", "value": "27 ± 2.9", "unit": "s"}, {"measurement": "Licking latency", "setting": "male Sprague-Dawley rats [2]; pretreatment GVG 300 mg/kg (2.5 h before), treatment vehicle 1 ml/kg", "value": "17 ± 1.4+ sec"}, {"measurement": "Inhibition of the DA response to morphine in the NAcc", "setting": "[3]; GVG 150 mg/kg i.p. 2.5 hours prior to morphine 7 mg/kg", "value": "no significant inhibition"}, {"measurement": "Attenuation of the DA response to morphine in the NAcc", "setting": "[3]; GVG 300 mg/kg i.p. 2.5 hours prior to morphine 7 mg/kg, p<0.01", "value": 62, "unit": "%"}, {"measurement": "Attenuation of the DA response to morphine in the NAcc", "setting": "[3]; GVG 500 mg/kg i.p. 2.5 hours prior to morphine 7 mg/kg, p<0.001", "value": 67, "unit": "%"}]}, {"smiles": "CN1CC[C@]23c4c5ccc(O)c4O[C@H]2[C@@H](O)C=C[C@H]3[C@H]1C5", "note": "[Morphine, morphine]", "values": [{"measurement": "Licking latency", "setting": "male Sprague-Dawley rats [2]; pretreatment vehicle 1 ml/kg, treatment morphine 10 mg/kg 30 min before hot plate", "value": "27 ± 3.0", "unit": "s"}, {"measurement": "Increase of DA concentrations above baseline in the NAcc", "setting": "[3]; morphine alone, 7 mg/kg i.p., baseline = 100%, p<0.01", "value": 50, "unit": "%"}]}]}
